# Measurements as given in article PMC9079302 (The Journal of Biological Chemistry, 2022).
# Several values for one entry are separate records, joined by “and”; a condition that tells them apart may be missing. Identical values can stand only once. Like-named read-outs stand apart in the source and are kept apart here.
# Columns and labels:
# 3A5 [1] = test system: 3A5; parameters: method as in PMID 17200113; conditions: type 2 shift, 1 μM P450, biphasic response; cited from earlier work
# 3A5 [2] = test system: 3A5; parameters: method as in PMID 27485383; conditions: cited from earlier work
# P450 3A5 = molecular target: T1, P450 3A5 (Homo sapiens, UniProt P20815); assay: Type 1 spectral shift equilibrium binding to P450 3A5; conditions: for concentration dependence of type 1 spectral shift (shape of binding curve): 3A5 binding isotherm; for ΔAmax/[P450]: one-site binding (Equation 2; tiamulin Equation 3)
# T1 construct: 4-histidine tag (C); made in house; host or cells: Escherichia coli
# T1 sequence (P20815 with tags, fused parts or gaps limits assumed): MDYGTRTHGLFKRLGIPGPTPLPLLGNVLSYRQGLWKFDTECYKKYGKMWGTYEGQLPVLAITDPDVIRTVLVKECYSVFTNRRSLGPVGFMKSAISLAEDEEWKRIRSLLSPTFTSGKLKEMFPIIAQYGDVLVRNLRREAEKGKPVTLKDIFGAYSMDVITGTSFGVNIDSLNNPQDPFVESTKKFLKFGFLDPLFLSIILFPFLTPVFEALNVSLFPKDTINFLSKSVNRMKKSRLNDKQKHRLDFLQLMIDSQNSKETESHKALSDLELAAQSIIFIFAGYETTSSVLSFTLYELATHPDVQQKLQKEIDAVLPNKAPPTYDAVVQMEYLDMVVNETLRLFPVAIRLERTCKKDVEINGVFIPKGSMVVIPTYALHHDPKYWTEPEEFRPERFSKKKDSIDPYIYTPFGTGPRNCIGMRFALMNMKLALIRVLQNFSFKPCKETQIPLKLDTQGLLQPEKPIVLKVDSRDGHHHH
# Procedure: The sample cuvette contained 3A5, and the corresponding buffer was in the reference cuvette. The protein buffer consisted of 50 mM sodium Hepes at pH 7.4, 50 mM potassium acetate at pH 7.4, 0.5 mM EDTA, and 20% glycerol. […] The digital spectra were sampled at 1 nm intervals for 1 s. Excel was used to subtract the initial spectrum from subsequent spectra with volume corrections for substrate addition. […] Initial values for Kds and RSRs for each complex are provided. Ligand-free P450 was assigned an RSR of zero. The output includes predicted values for Kds and RSRs, correlations between parameters, and several statistical values for goodness of fit and variances. In addition, graphs of the fit of the data to the model and residuals are produced in several formats.
# [3] = test system: human microsomal testosterone turnover; parameters: method as in PMID 33137559; conditions: human microsomes; cited from earlier work
# [4] = type 1 spectral shift, one-site binding (Equation 2; tiamulin tight-binding Equation 3), [P450] 0.94–2.03 μM, read-out: Kd
SMILES,concentration dependence of type 1 spectral shift (shape of binding curve) (P450 3A5),ΔAmax/[P450] (P450 3A5; type 1 spectral shift),Kd (P450 3A5; [4]) [µM],further results
CC(=O)N1CCN(c2ccc(OCC3COC(Cn4ccnc4)(c4ccc(Cl)cc4Cl)O3)cc2)CC1 (stereo not drawn) [ketoconazole],–,–,–,Hill coefficient (3A5 [1]): 1.4
"CC[C@]1(C)C[C@@H](OC(=O)CSc2n[nH]c(N)n2)[C@]2(C)[C@H](C)CC[C@]3(CCC(=O)[C@H]32)[C@@H](C)[C@@H]1O [Azamulin, (3aS,4R,5S,6R,8R,9R,9aR,10R)-6-ethyl-5-hydroxy-4,6,9,10-tetramethyl-1-oxodecahydro-3a,9-propanocyclopenta[8]annulen-8-yl [(5-amino-1H-1,2,4-triazol-3-yl)sulfanyl]acetate]",–,–,–,"time-dependent inhibition of 3A5 (3A5 [2]): either very slow or nonexistent; Kd (P450 3A5; Dynafit numerical fit, model 4, [P450] 3.73–4.36 μM, 4 replicates, read-out: K1d (binary complex, two-site sequential binding model)): 0.6 µM and 0.65 µM; Kd (P450 3A5; Dynafit numerical fit, model 4, [P450] 3.73–4.36 μM, 4 replicates, read-out: K2d (ternary complex, two-site sequential binding model)): 3.4 µM and 3.41 µM; Kd (P450 3A5; type 1 spectral shift, sigmoidal curve, nominal 4 μM 3A5, n = 4, read-out: Kd (Hill equation fit)): 7.1 ± 0.4 µM"
C=C[C@]1(C)C[C@@H](OC(=O)CO)[C@]2(C)[C@H](C)CC[C@]3(CCC(=O)[C@H]32)[C@@H](C)[C@@H]1O [Pleuromutilin],hyperbolic,0.12 ± 0.02,32.7 ± 4.3,–
C=C[C@]1(C)C[C@@H](OC(=O)CSCCN(CC)CC)[C@]2(C)[C@H](C)CC[C@]3(CCC(=O)[C@H]32)[C@@H](C)[C@@H]1O [Tiamulin],hyperbolic,0.08 ± 0.00,6.31 ± 1.02,IC50 [3]: 1.69 µM
C=C[C@]1(C)C[C@@H](OC(=O)CS[C@@H]2C[C@H]3CC[C@@H](C2)N3C)[C@]2(C)[C@H](C)CC[C@]3(CCC(=O)[C@H]32)[C@@H](C)[C@@H]1O [Retapamulin],hyperbolic,0.09 ± 0.00,16.6 ± 2.4,–
C=C[C@]1(C)C[C@@H](OC(=O)CS[C@@H]2CC[C@@H](N)C[C@H]2O)[C@]2(C)[C@H](C)CC[C@]3(CCC(=O)[C@H]32)[C@@H](C)[C@@H]1O [Lefamulin],hyperbolic,0.06 ± 0.00,55.1 ± 7.8,–
